Common to all, as to type: cell-based
Test [1] deals with T1, human TLR8 (Homo sapiens, UniProt Q9NR97).
T1 construct: host or cells: HEK-Blue cells
T1 sequence (Q9NR97 27-1041): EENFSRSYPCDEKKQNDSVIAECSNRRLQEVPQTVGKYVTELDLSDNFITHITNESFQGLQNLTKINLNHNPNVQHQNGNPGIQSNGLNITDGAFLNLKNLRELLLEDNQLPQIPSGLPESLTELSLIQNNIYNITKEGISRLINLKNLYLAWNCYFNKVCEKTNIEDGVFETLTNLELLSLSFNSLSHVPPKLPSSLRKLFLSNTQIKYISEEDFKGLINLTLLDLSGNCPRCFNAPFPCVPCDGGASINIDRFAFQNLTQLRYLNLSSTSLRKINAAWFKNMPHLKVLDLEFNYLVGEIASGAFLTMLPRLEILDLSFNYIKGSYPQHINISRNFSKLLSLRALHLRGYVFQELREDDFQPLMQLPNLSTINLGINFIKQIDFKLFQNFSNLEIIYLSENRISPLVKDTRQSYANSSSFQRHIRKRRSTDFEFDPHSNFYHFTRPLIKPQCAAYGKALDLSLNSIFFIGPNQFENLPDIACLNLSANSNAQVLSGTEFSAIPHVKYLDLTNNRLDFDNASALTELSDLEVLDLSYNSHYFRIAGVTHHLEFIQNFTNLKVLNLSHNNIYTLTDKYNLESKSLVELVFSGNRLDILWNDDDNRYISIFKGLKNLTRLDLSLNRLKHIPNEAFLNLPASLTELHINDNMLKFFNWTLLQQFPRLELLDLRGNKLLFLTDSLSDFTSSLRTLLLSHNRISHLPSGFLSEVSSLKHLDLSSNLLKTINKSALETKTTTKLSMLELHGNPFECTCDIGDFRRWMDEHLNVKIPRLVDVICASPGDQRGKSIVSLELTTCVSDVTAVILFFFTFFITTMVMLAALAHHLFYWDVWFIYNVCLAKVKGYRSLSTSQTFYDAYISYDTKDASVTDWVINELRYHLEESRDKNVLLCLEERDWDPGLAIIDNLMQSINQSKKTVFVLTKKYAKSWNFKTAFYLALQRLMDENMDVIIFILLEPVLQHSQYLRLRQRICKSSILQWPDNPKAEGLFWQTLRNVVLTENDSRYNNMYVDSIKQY
The test is described as follows: TLR8 inhibition reporter assay (HEK-Blue SEAP). The following applies: HEK-Blue cells overexpressing human TLR8, stimulated with R848 15.9 µM, 22 h incubation. As to the method:
(§1) HEK-Blue™-cells (Invivogen) overexpressing human TLR7, TLR8 or TLR9 receptors were used for screening inhibitors of these receptors using an inducible SEAP (secreted embryonic alkaline phosphatase) reporter gene under the control of the IFN-β minimal promoter fused to five NF-κB and AP-1-binding sites. Briefly, cells are seeded into Greiner 384 well plates (15000 cells per well for TLR7, 20,000 for TLR8 and 25,000 for TLR9) and then treated with test compounds in DMSO to yield a final dose response concentration range of 0.05 nM - 50 µM. After a 30 minute compound pre-treatment at room temperature, the cells are then stimulated with a TLR7 ligand (gardiquimod at a final concentration of 7.5 µM), TLR8 ligand (R848 at a final concentration of 15.9 µM) or TLR9 ligand (ODN2006 at a final concentration of 5 nM) to activate NF-κB and AP-1 which induce the production of SEAP. After a 22 h incubation at 37°C, 5% CO2, SEAP levels are determined with the addition of HEK-Blue™ Detection reagent (Invivogen), a cell culture medium that allows for detection of SEAP, according to manufacturer's specifications. The percent inhibition is determined as the % reduction in the HEK-Blue signal present in wells treated with agonist plus DMSO alone compared to wells treated with a known inhibitor.

Test [2] has as its target T2, human TLR7 (Homo sapiens, UniProt Q9NYK1).
T2 construct: host or cells: HEK-Blue cells
T2 sequence (Q9NYK1 27-1049): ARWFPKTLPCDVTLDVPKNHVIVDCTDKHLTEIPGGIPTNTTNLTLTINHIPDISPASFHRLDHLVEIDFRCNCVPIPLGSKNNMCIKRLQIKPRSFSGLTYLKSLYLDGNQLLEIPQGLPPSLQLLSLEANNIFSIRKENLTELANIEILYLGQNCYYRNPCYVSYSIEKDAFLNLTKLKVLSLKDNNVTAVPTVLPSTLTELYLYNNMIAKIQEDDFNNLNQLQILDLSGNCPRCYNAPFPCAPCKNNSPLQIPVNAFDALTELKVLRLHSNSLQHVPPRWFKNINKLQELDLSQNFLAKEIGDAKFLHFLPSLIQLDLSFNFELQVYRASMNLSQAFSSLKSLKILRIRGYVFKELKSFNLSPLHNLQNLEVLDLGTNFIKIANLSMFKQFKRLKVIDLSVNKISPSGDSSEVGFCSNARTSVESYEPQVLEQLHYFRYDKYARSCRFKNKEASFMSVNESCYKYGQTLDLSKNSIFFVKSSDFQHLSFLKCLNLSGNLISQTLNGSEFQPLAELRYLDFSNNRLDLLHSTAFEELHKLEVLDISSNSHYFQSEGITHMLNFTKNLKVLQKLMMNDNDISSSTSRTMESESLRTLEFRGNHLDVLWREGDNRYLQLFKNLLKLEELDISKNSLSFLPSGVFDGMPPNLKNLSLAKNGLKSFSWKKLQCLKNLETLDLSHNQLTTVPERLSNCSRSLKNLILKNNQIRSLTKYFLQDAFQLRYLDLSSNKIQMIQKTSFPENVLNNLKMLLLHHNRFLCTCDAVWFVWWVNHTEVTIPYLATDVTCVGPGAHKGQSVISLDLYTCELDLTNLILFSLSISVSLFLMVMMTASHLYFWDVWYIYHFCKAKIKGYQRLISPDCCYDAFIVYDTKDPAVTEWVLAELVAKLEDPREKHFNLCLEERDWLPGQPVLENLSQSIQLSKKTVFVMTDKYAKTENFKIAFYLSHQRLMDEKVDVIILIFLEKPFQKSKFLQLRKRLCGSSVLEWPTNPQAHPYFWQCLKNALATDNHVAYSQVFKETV
The test is described as follows: TLR7 inhibition reporter assay (HEK-Blue SEAP). The following applies: HEK-Blue cells overexpressing human TLR7, stimulated with gardiquimod 7.5 µM, 22 h incubation. As to the method:
as §1

In test [3] the target is T3, human TLR9 (Homo sapiens, UniProt Q9NR96).
T3 construct: host or cells: HEK-Blue cells
T3 sequence (Q9NR96 26-1032): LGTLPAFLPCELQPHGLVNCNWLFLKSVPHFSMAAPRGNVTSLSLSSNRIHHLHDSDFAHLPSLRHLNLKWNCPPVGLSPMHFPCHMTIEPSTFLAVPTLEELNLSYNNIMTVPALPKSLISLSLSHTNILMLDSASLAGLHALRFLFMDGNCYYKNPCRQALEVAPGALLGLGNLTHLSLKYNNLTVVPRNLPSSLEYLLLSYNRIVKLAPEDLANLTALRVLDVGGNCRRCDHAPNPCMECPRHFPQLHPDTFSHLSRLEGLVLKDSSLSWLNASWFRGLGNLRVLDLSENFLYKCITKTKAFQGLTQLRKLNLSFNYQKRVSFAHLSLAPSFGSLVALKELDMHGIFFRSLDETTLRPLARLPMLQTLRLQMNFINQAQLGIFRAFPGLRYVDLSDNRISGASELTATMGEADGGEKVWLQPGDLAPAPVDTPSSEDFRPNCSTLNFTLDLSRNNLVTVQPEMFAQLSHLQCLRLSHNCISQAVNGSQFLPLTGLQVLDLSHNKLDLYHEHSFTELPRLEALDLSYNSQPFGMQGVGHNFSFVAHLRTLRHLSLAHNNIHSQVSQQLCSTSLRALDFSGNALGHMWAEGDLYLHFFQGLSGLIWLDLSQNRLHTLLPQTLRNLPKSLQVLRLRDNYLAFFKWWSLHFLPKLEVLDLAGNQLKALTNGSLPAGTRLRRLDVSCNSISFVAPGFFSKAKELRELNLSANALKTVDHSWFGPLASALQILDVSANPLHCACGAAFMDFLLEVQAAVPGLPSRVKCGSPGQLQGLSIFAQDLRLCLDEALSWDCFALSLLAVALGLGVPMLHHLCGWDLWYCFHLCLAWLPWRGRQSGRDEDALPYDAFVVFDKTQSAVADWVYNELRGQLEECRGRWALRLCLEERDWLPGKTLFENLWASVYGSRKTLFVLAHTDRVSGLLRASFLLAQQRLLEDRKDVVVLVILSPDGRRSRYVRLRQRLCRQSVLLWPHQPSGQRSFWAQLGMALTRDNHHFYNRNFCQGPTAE
The test is described as follows: TLR9 inhibition reporter assay (HEK-Blue SEAP). Particulars: HEK-Blue cells overexpressing human TLR9, stimulated with ODN2006 5 nM, 22 h incubation. The method, then: as §1
For orientation: In a reporter assay the amount or activity of a reporter protein is the signal.

With `Cc1cc2c(cc1-c1cn(C)c(=O)c(C)c1C)[nH]c1ccc(C3CCN(CC(C)(C)O)CC3)cc12` [Example 24], the values for the concentration for half-maximal inhibition (IC50) in test [1], in test [2] and in test [3] were 1.5 nM, 68 nM and 388 nM, respectively.

For the compound `COc1cc(-c2cc3[nH]c4ccc(C5CCCNC5)cc4c3c(C)c2C)cn2ncnc12` (stereo not drawn) [Example 26, 2-(8-methoxy-[1,2,4]triazolo[1,5-a]pyridin-6-yl)-3,4-dimethyl-6-(piperidin-3-yl)-9H-carbazole], the IC50 (commonly the concentration at which inhibition is half-maximal) in test [1] worked out at 1.6 nM; in test [2], 1.3 nM; in test [3], 271 nM.

On to `c1cc(-c2ccc3c(c2)[nH]c2ccc(C4CCNCC4)cc23)ccn1` [Example 9, 6-(Piperidin-4-yl)-2-(pyridin-4-yl)-9H-carbazole], for which the IC50 was 61 nM in test [1], 383 nM in test [2] and 302 nM in test [3].

Consider `COc1cc(-c2cc3[nH]c4ccc(C5CCCN(C(=O)CN(C)C)C5)cc4c3c(C)c2C)cn2ncnc12` (stereo not drawn) [Example 27, 2-(dimethylamino)-1-(3-(7-(8-methoxy-[1,2,4]triazolo[1,5-a]pyridin-6-yl)-5,6-dimethyl-9H-carbazol-3-yl)piperidin-1-yl)ethan-1-one], for which the values for the IC50 in test [1], in test [2] and in test [3] were 3.8 nM, 3.3 nM and 1170 nM, respectively.

For the compound `Cc1cc2c(cc1-c1cc(C)c3ncnn3c1)[nH]c1ccc(C3CCNCC3)cc12` [Example 14, 3-methyl-2-(8-methyl-[1,2,4]triazolo[1,5-a]pyridin-6-yl)-6-(piperidin-4-yl)-9H-carbazole], the IC50 in test [1] came to 1.4 nM; in test [2], 1.2 nM; in test [3], 318 nM.

Regarding `Cc1cc2c(cc1-c1cn(C)c(=O)c(C)c1C)[nH]c1ccc(C3CCNCC3)cc12` [Example 16], the IC50 in test [1] is 5.5 nM; in test [2], 35 nM; in test [3], 158 nM.

Take `Cc1cc2c(cc1-c1cc(C)c3ncnn3c1)[nH]c1ccc(C3CCN(CC(C)(C)O)CC3)cc12` [Example 22]: the values for the IC50 in test [1], in test [2] and in test [3] were 0.7 nM, 1.6 nM and 342 nM, respectively.

The values above are taken from patent EP4038059B1, “SUBSTITUTED CARBAZOLE COMPOUNDS” (Bristol-Myers Squibb Company, priority 2019, dated 2021).
